Columns and labels:
[1] = tested on: cisplatin-induced renal injury; assay: Mice model of cisplatin-induced renal injury: serum creatinine (CRE) and BUN; format: in vivo; settings: compounds, dose not given, daily for 7 days; p<0.001 vs cisplatin group
Description: Determination of biochemical parameters Serum creatinine and serum urea are assessed using colorimetric kits according to manufacturer's instructions. Kits of the former markers are purchased from (HUMAN Diagnostics Worldwide, Magdeburg, Germany) with a chemical analyzer (Roche Diagnostics, Cobas Mira Plus, Rotkreuz, Switzerland).
(§1) Seven-to-eight-week-old male C57BL/6 mice are obtained from the BioLASCO Taiwan Co., Ltd. (Taipei, Taiwan). The animals are housed in Plexiglas cages at a constant temperature of 22±1° C. and a relative humidity of 55±5% on a 12 h dark-light cycle for at least 2 weeks before the experiment. Animals are provided food and water ad libitum. All experimental procedures are performed according to the guidelines of the Institutional Animal Ethics Committee, and the protocol is approved by the Committee for the Purpose of Control and Supervision of Experiments on Animals.
Renal fibrosis is induced via multiple injections of low-dose cisplatin. Intraperitoneal injections of cisplatin (5 mg/kg/injection; P4394, Sigma-Aldrich, St Louis, Mo.) are performed at 0, 1, and 3 weeks, for a total of 3 injections. Mice are sacrificed at 6 weeks after the first dose of cisplatin (n=6). To analyze the effects of samples, mice are given daily intraperitoneal injections for 7 days, starting from 4 weeks after first dose of cisplatin, and sacrificed at […] (n=6). […]

[2] = tested on: CCl4-induced chronic liver fibrosis; assay: CCl4-induced chronic liver fibrosis in rat; settings: in vivo
Description: Blood samples are collected at week 0, 2, 4, 6, and 8. The animals are sacrificed at the end of the 8-week for histopathological examinations. FIGS. 7A, 7B, 7C depict delta weight, liver weight, and liver/body-weight ratio, respectively.
The level of clinical biochemistry such as aspartate aminotransferase (AST), alanine aminotransferase (ALT), is evaluated to determine the enzymatic activities of the livers of the control groups and the experimental groups (shown in FIGS. 8A-8C).

[3] = tested on: HepG2 cells; assay: Oleic acid-induced steatosis in HepG2 cells (Oil Red O); format: cell-based, human; settings: 6 h pre-treatment, then 0.5 mM OA for 24 h, OD 510 nm, at noncytotoxic concentration
Description: Oleic acid (OA) induced steatosis in HepG2 cells and may consider an in vitro model for human fatty liver disease. HepG2 cells were treated with different concentrations of oleic acid (OA) to induce steatosis. Intracellular lipid was stained by Oil Red O (ORO), and quantified by colorimetric assay. 0.5 mM OA was chosen for further studies (FIGS. 37 and 38). HepG2 cells were treated with test compounds ([…]) and incubated for 48 h (FIG. 39). HepG2 cells were seeded in 24-well plates and deprived from FBS for 24 h. These cells were then treated with different concentrations of test compounds for 6 h before induced with 0.5 mM OA for 24 h. Cells were gently washed with PBS and fixed using paraformaldehyde at RT, then stained with Oil Red (ORO) solution for 30 min at RT. ORO stain was extracted using pure isopropanol and the optical density was detected at 510 nm (FIG. 40).

[4] = tested on: NO, TNF-α, IL-1β, and IL-6; assay: Cisplatin-induced renal injury: pro-inflammatory cytokines in serum (ELISA); format: in vivo, mice; settings: compound, dose not given
Description: TNF-α, IL-6, and IL-1β cytokines in serum The serum concentration of the pro-inflammatory cytokines (i.e. tumor necrosis factor-α (TNF-α), interleukin-6 (IL-6), and IL-1β) in serum are assessed with relevant enzyme-linked immunosorbent assay (ELISA) kits (Biosource International Inc., Sunnyvale, Calif., USA), based on the manufacturer's instructions.
as §1
Renal fibrosis is induced via multiple injections of low-dose cisplatin. Intraperitoneal injections of cisplatin (5 mg/kg/injection; P4394, Sigma-Aldrich, St Louis, Mo.) are performed at 0, 1, and 3 weeks, for a total of 3 injections. Mice are sacrificed at 6 weeks after the first dose of cisplatin (n=6). […]

[5] = tested on: cisplatin-induced renal injury; assay: Cisplatin-induced renal injury: kidney histopathology (H&E); format: in vivo, mice; settings: compound, dose not given
From the text: Kidney histopathology The anterior portion of the left lateral liver lobe from each mouse is fixed in 10% formaldehyde phosphate buffer, embedded in paraffin, cut into 5 μm sections, and then treated with an hematoxylin and eosin (H&E) stain for histological examination under the light microscopy (Nikon, ECLIPSE, TS100, Tokyo, Japan). Images are captured with a digital camera (NIS-Elements D 2.30, SP4, Build 387) at an original magnification of 400×.
as §1
Renal fibrosis is induced via multiple injections of low-dose cisplatin. […]
The histopathological changes are analyzed to determine whether Antrodia camphorata extract and compounds affected renal failure in cisplatin-stimulated mice. […]

[6] = tested on: Con A-induced acute hepatitis; assay: Con A (concanavalin A) induced acute hepatitis in BALB/c mice; format: in vivo; settings: 24 h after Con A; mean±SEM; vehicle 1.4±0.2
From the text: Intravenous injection of concanavalin A (Con A) is a widely used strategy to study T cell mediated hepatitis. Con A is a lectin that can activate CD4^+ T cells, produce cytokines, and lead to liver cell damage. Dexamethasone (Dex) is a long acting synthetic corticosteroid, and has been used as anti-inflammatory and immunosuppressive medication.
Male BALB/c mice (7-9 weeks old) were purchased from BioLASCO Taiwan Co., Ltd or National Laboratory Animal Center (NLAC, Taiwan). Animals are housed five per cage with food and water provided ad libitum throughout the experiments. Room temperature is maintained at 23±2° C. with an alternating 12 h light dark cycle. Animals are acclimatized for one week to minimize the effect of stress before the experiments. All experimental protocols involving animals and their care are approved by the Institutional Animal Care and Use Committee (IACUC) in ITRI (ITRI-IACUC-2018-041 and ITRI-IACUC-2018-050; accredited by AAALAC) and are carried out according to the regulations of the Council of Agriculture, Taiwan. […]
To assess the level of hepatocellular injury after Con A treatment, serum GPT and GOT levels are measured by Fuji Dri-Chem slides (Fuji, Japan). […] Cytokine levels are measured by ProcartaPlex™ immunoassays kit according to manufacturer's instructions. […]

C=C1C(=O)O[C@H]2/C=C(\C)CC3C=C(CC/C=C(\C)CC[C@H]12)C(=O)O3 (stereo partly drawn) [AR100-DS1, Ovatodiolide]
renal protection effect (normalization of serum CRE and BUN) [1]: significant renal protection effect | CCl4-induced liver injury, overall [2]: potential to partially repair | OA-induced steatosis in HepG2 cells [3]: inhibition | NO, TNF-α, IL-1β, and IL-6 production after cisplatin challenge [4]: improved | necrosis and inflammatory infiltrating cells in the kidney tissue [5]: significantly improved | liver necrosis histopathological score (0 to 4) [6]: 0.2±0.2

Reference: US20230041859A1, “USE OF TERPENOIDS IN THE TREATMENT OR PREVENTION OF FIBROTIC DISEASES” (Arjil Biotech Holding Company Limited, priority 2021, published 2023)
